Measurements from US4791215A, “Derivatives of glutamic acid and aspartic acid” (priority 1984, dated 1988).

Tests used:
morphine analgesia = experiment: Increase in analgesia of morphine, Tail Flick Test (Experiment 1); format: in vivo, rats; details: for percentage variation of latency of pain sensation / M (10-90) ± SE, mean percentage variation of latency: compound 10 mg/kg i.p. + morphine 2 mg/kg; for M (10-90) ± SE, mean percentage variation of latency: mean 10-90 min; for Power ratio with respect to morphine alone: rat, in vivo
Method in brief: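 Non-fasted male rats (150-200 g); a tail point is exposed to a 75 °C heat source and latency to tail movement recorded, 8 s cut-off. Readings taken before and 10, 20, 30, 45, 60 and 90 min after analgesic treatment; percentage variation calculated per animal.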

[1] = tested on: CCK-8 induced contraction of guinea pig gall bladder; experiment: Anti-CCK activity on gall bladder strips in vitro; details: CCK-8 10 ng/ml
Procedure: ANTI-CCK ACTIVITY ON GUINEA PIG GALL BALDDERS IN VITRO
A longitudinal strip of guinea pig gall bladder was placed in a bath of isolated members in the presence of Krebs at a temperature of 32° C. with continuous oxygenation with an oxygen-CO2 mixture (95-5V/V).
The isometric contractions were detected by means of a force transducer and recorded.
The gall bladder was made to contract with the use of a 10 ng/ml concentration of CCK-8; the antagonistic activity of the compounds of the invention on the contracting effect of the CCK was determined with the use of different concentrations and the ED 50 value, that is the concentration in μg/ml of a compound which could antagonise 50% of the contracting effect of the CCK, was determined.

| Structure (SMILES) | percentage variation of latency of pain sensation (morphine analgesia; 10') [%] | percentage variation of latency of pain sensation (morphine analgesia; 20') [%] | percentage variation of latency of pain sensation (morphine analgesia; 30') [%] | percentage variation of latency of pain sensation (morphine analgesia; 45') [%] | percentage variation of latency of pain sensation (morphine analgesia; 60') [%] | percentage variation of latency of pain sensation (morphine analgesia; 90') [%] | M (10-90) ± SE, mean percentage variation of latency (morphine analgesia) [%] | Power ratio with respect to morphine alone (morphine analgesia) | ED50 (concentration antagonising 50% of contracting effect of CCK-8) [1] [µg/mL] |
| --- | --- | --- | --- | --- | --- | --- | --- | --- | --- |
| CCCN(CCC)C(=O)C(CCC(=O)O)NC(=O)c1cc(I)c(I)c(I)c1 (stereo not drawn) [Compound C-19] | 3.6 ± 12.0 | 42.8 ± 19.0 | 58.4 ± 21.0 | 66.1 | 57.1 ± 18.0 | 35.6 ± 20.0 | 43.9 ± 22.7 | 1.47 | > 200 |
| CCCCN(CCCC)C(=O)C(CCC(=O)O)NC(=O)c1ccc(Cl)cc1Cl (stereo not drawn) [Compound C-10] | 56.9 ± 25.8 | 66.4 ± 21.4 | 72.9 | 70.1 ± 18.5 | 66.2 ± 21.3 | 63.2 ± 23.4 | 66.0 ± 5.6 | 2.21 | 43.7 |
| CCCN(CCC)C(=O)C(CCC(=O)O)NC(=O)c1ccc(C)cc1 (stereo not drawn) [Compound C-29] | 48.7 ± 20 | 75.5 | 73.6 ± 11 | 70.0 ± 19 | 47.3 ± 23 | 6.0 ± 14 | 53.5 | 1.80 | 262 |
| CCCN(CCC)C(=O)C(CCC(=O)O)NC(=O)c1ccccc1Br (stereo not drawn) [Compound C-14] | 36.5 ± 28.4 | 76.0 ± 12.7 | 79.3 ± 10.6 | 77.0 ± 6.7 | 98.3 ± 1.3 | 71.9 ± 13.2 | 73.1 ± 20.0 | 2.45 | 118.4 |
| CCCN(CCC)C(=O)C(CCC(=O)O)NC(=O)c1c(C)cc(C)cc1C (stereo not drawn) [Compound C-33] | -0.1 ± 12 | 30.9 ± 8 | 38.7 | 41.7 ± 16 | 48.7 ± 21 | 46.6 ± 12 | 34.4 ± 18 | 1.15 | 131.7 |
| N#Cc1cccc(C(=O)NC(CC(=O)O)C(=O)NC2CCCCC2)c1 (stereo not drawn) [Compound C-23] | 33.1 ± 19.0 | 49.9 ± 15.0 | 58.2 ± 17.0 | 68.3 ± 20.0 | 72.0 | 58.7 ± 22.0 | 56.7 ± 14.0 | 1.90 | > 200 |
| CCCN(CCC)C(=O)C(CCC(=O)O)NC(=O)c1cccc(Cl)c1 (stereo not drawn) [Compound C-2] | 27.8 ± 13.0 | 43.8 ± 25.0 | 67.5 ± 20.0 | 64.2 | 74.4 ± 16.0 | 57.3 ± 19.0 | 55.8 ± 17.0 | 1.87 | > 200 |
| CN(C)C(=O)CCC(NC(=O)c1ccc(Cl)c(Cl)c1)C(=O)O [Compound D-1] | 75.0 ± 16.0 | 100.0 ± 0.0 | 100.0 ± 0.0 | 86.4 ± 14.0 | 100.0 ± 0.0 | 51.0 ± 21.0 | 85.4 ± 19.7 | 2.86 | > 200 |
| CCCN(CCC)C(=O)C(CCC(=O)O)NC(=O)c1ccccc1I (stereo not drawn) [Compound C-17] | 18.9 | 37.0 ± 12.0 | 45.8 ± 18.0 | 41.0 ± 17.0 | 39.3 ± 20.0 | 31.2 ± 18.0 | 35.5 ± 9.5 | 1.19 | > 200 |
| CCCN(CCC)C(=O)C(CCC(=O)O)NC(=O)c1ccc(Cl)c(Cl)c1 (stereo not drawn) [Compound C-5] | 34.5 ± 17.4 | 21.4 ± 16.0 | 59.5 ± 21.1 | 84.7 | 63.9 ± 18.5 | 40.1 ± 23.9 | 50.7 ± 23.0 | 1.70 | 4.2 |
| CCCCN(CCCC)C(=O)C(CCC(=O)O)NC(=O)c1cc(Cl)cc(Cl)c1 (stereo not drawn) [Compound C-9] | 67.6 ± 11.0 | 65.8 | 71.9 ± 17.5 | 59.1 ± 20.0 | 52.1 ± 22.0 | 40.4 ± 18.0 | 59.5 ± 11.6 | 2.00 | 7.40 |
| O=C(NC(CCC(=O)N1CCOCC1)C(=O)O)c1ccc(Br)cc1 [Compound D-6] | 31.2 ± 22.0 | 45.8 ± 23.0 | 50.7 | 44.5 ± 24.0 | 45.3 ± 24.0 | 28.2 ± 19.0 | 41.0 ± 9.0 | 1.37 | > 200 |
| Cc1ccc(C(=O)NC(CCC(=O)O)C(=O)NC2CCCCC2)cc1C (stereo not drawn) [Compound C-47] | 24.5 | 63.5 ± 18 | 52.3 ± 17 | 80.1 ± 22 | 73.2 ± 17 | 49.3 ± 19 | 57.1 ± 20 | 1.92 | 35.1 |
